Test results reported in PMC6050274, “Buparlisib is a brain penetrable pan-PI3K inhibitor” (Scientific Reports, 2018).

What was measured:
[1] = Plasma and brain levels after oral administration in wildtype mice; assay type: in vivo, FVB mice
Experimental: First, we could confirm that buparlisib also achieves excellent brain penetration after oral administration, since the observed brain-plasma ratio in WT FVB mice was in line with those obtained following i.v. administration (Figs 2C, 3A).
Figure 3 Buparlisib has excellent intracranial target engagement and oral bioavailability. (A) Buparlisib was orally administered to wildtype mice at a dose of 1 mg/kg, 2 mg/kg or 5 mg/kg. One hour after injection, blood and tissues were collected for LC-MS/MS analysis. Buparlisib plasma and brain levels increase dose-dependently, yielding similar and excellent brain-plasma ratios at all dose levels that were tested. (B) Immunoblotting of brain tissue lysates from (A). […] (C) Plasma-time curves of male and female wildtype mice following intravenous (2 mg/kg) or oral (5 mg/kg) administration. […] The oral bioavailability of buparlisib is excellent, since oral and intravenous administration yielded similar dose-adjusted AUCs (see Table 1). All data are represented as mean ± SD (n = 4).
The pharmacokinetics of buparlisib were analysed in WT, Abcg2^−/−, Abcb1a/b^−/− and Abcb1a/b; Abcg2^−/− FVB mice. All knockout mice strains have been developed within our institute[41]–[43]. For i.v. administration, buparlisib was dissolved in DMSO and injected at a dose of 2 mg/kg. For oral administration, buparlisib was formulated in DMSO:Cremophor EL:water (1:1:8 v/v/v) and administered at 1, 2 or 5 mg/kg as indicated. Tail vein bleeding was used to collect blood at intermediate time points, whereas at the last time point blood was drawn by cardiac puncture and various tissue were collected. Plasma was obtained from whole blood by centrifugation (5 min, 5,000 rpm, 4 °C). After weighing, tissues were homogenized using a FastPrep®-24 (MP-Biomedicals, NY) in 1% (w/v) bovine serum albumin in water. […]
Buparlisib was measured in samples from in vitro transport assays and in vivo pharmacokinetic studies using an LC-MS/MS system comprised of an UltiMate 3000 LC Systems (Dionex, Sunnyvale, CA) and an API 4000 mass spectrometer (Sciex, Framingham, MA). […]

human BCRP (ABCG2) = target: T1, human BCRP (ABCG2) (Homo sapiens, UniProt Q9UNQ0); test: Concentration equilibrium transport assay (CETA), MDCK-BCRP; assay type: in vitro ADME; details: 100 nM
T1 construct: expressed in transfected cells; host or cells: MDCK (MDCK-BCRP)
T1 sequence (Q9UNQ0 1-655): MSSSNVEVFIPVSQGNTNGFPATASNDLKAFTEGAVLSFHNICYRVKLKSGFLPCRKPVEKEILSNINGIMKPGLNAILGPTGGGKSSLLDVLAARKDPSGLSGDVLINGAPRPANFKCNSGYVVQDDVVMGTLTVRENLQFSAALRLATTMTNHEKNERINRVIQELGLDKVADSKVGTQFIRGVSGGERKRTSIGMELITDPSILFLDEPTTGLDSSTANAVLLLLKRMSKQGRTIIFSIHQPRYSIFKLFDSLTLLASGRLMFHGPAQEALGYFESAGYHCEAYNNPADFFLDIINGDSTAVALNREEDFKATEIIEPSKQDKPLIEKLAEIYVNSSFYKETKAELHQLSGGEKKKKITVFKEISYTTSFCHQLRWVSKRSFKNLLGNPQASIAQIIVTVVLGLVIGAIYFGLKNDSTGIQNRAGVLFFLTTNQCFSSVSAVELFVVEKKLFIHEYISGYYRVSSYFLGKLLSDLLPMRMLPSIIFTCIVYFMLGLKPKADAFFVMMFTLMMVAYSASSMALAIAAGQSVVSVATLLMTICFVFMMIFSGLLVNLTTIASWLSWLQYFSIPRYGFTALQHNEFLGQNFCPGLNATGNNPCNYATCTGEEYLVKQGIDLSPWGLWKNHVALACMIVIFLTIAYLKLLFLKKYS
From the text: Figure 1 Analysis of buparlisib substrate affinity for ABC transporters using in vitro transport assays. (A) The chemical structure of buparlisib. (B) A conventional transport assay (CTA) using LLC-PK1 cells in presence of zosuquidar to block endogenous (porcine) P-gp activity. […] (C) Concentration equilibrium transport assays (CETAs) using MDCK or LLC cells that overexpress murine BCRP, (Bcrp1), human BCRP, murine P-gp (Mdr1a) or human P-gp (MDR1). […] The P-gp inhibitor zosuquidar was used in all MDCK cell lines to inhibit endogenous P-gp activity and in LLC cell lines to validate possible P-gp-mediated translocations. […]
Conventional bidirectional transport assays (CTAs) and concentration equilibrium transport assays (CETAs) were performed as described previously. […] Transwell leakiness was determined as Carboxyl-[^14C]-inulin translocation exceeding 1.5% per hour and these wells were excluded from the analysis. […]
As described in detail before, CETA results were analysed with the General linear model repeated measures procedure of SPSS (v22; SPSS Inc, Chicago, IL)[25]. […] The standard error of the oral bioavailability was calculated using the formula below: SEF=F(SEAUCp.o./AUCp.o.)^2+(SEAUCi.v./AUCi.v.)^2 Buparlisib concentrations in WT and transporter knockout mice in vivo were compared using one-way analysis of variance followed by post hoc Bonferroni tests. […]

[2] = humans; cited from earlier work

**Q.** With `Nc1cc(C(F)(F)F)c(-c2cc(N3CCOCC3)nc(N3CCOCC3)n2)cn1` [buparlisib] as the compound, how does the Kp at 1 h ([1]; FVB, mouse, brain/plasma, other: intravenous and oral, i.v. 2 mg/kg and oral 1, 2, 5 mg/kg (Figs 2C, 3A), read-out: brain-plasma ratio) read?
**A.** 1.5 to 2

**Q.** What about the concentration at 1 h ([1]; FVB, mouse, plasma, 5 mg/kg oral, WT mice, 1 hour, read-out: plasma level) of the same compound?
**A.** ~1200 ng/mL

**Q.** And the “change of plasma and brain concentrations with dose” value ([1]; oral 1, 2, 5 mg/kg, WT mice, 1 hour)?
**A.** dose-proportional increase

**Q.** And the “substrate of human BCRP” value (human BCRP (ABCG2))?
**A.** not a substrate

**Q.** And the maximum tolerated dose [2]?
**A.** 100 mg per day
